This note sets out measurements from patent US9957325B2, “Synthetic antibody mimic peptides” (Formurex, Inc., priority 2015, dated 2018).

What all share (experiment): Flow cytometry of FITC labeled HER2 mimics
For orientation: Flow cytometry measures light scatter and fluorescence of single cells or particles in a stream.

Test [1] deals with HEK293 cells. In kind it is cell-based, human. The note with it: HEK 293, 10 μM, 15 minutes. The method, then: (§1) Flow cytometric studies were carried out to quantify the fluorescence intensity of cells after being incubated with FITC labeled mimics. MDA-MB-361, ZR-75-1 and HEK293 cells were seeded in 6-well culture plates at a density of 3×10^5 cells per well for 24 hours and then incubated with FITC labeled mimics at a concentration of 10 μM in HBSS at 37° C. for 15 minutes. After washing with HBSS twice, cells remaining on the plates were trypsinized with Trpsin-EDTA and centrifuged at 1500 rpm for 5 min. Supernatant was removed and cell pellets were resuspended in 1 ml of HBSS. The suspension was transferred to a FACS Calibur™ flow cytometer and cell fluorescence was measured with high dynamic range photomultipliers with a 530 nm filter. Quantitative changes of fluorescence in different cells samples were assessed by mean fluorescence intensity (MFI), and FACS data were analyzed using BD CellQuest™ Pro software. Paired t-tests were used to determine statistical significance using the GraphPad Prism 5® Software. P-values less than or equal to 0.05 were considered to be statistically significant.

The subject of test [2] is ZR-75-1 cells. In kind it is cell-based. The note with it: ZR-75-1, 10 μM, 15 minutes. The method, then: as §1
The test system of test [3] is MDA-MB-361 cells. In kind it is cell-based. The conditions noted are these: MDA-MB-361, 10 μM, 15 minutes. Here is the method: as §1

Where no end group is shown, it is not given here.

On to “FITC-HER2-PEP22: FITC labeled control peptide HER2-PEP22 (TSPQGYPNDAGFLGRESTN; not fully specified (N-terminus); also: FITC labeled)”, for which the MFI came to 14.7±1.7 in test [1], 19.6±3.2 in test [2] and 22.1±0.5 in test [3].
